Measurements published in publication PMC3566143, “Pantothenamides Are Potent, On-Target Inhibitors of Plasmodium falciparum Growth When Serum Pantetheinase Is Inactivated” (PLoS ONE, 2013).
Like-named read-outs stand apart in the source and are kept apart here.

Experiments:
[1] = system: erythrocytic stage P. falciparum parasites (strain 3D7); experiment: SYBR Green I-based in vitro growth assay (96 h); format: cell-based, Plasmodium falciparum; conditions: for IC50: 1 µM pantothenate, 96 h; for effect on parasite growth in fresh Albumax-complete RPMI: fresh medium, up to 200 µM (highest concentration tested)
Procedure: Erythrocytic stage P. falciparum parasites (strain 3D7) were maintained within human erythrocytes in continuous culture essentially as described previously, [25]. P. falciparum-infected erythrocytes were routinely cultured in RPMI 1640 medium supplemented with 25 mM HEPES, 20 mM D-glucose, 200 µM hypoxanthine, 24 mg/L gentamycin and Albumax II (0.6%, w/v), which, hereafter is referred to as Albumax-complete RPMI. For several days prior to carrying out the assays testing the effect of compounds on the growth of P. falciparum in medium supplemented with human serum (instead of Albumax II), the parasites were cultured in the same medium mentioned above, except that human serum (10%, v/v, pooled from different blood donors) was used rather than Albumax II. This medium is hereafter referred to as human serum-complete RPMI.
The in vitro antiplasmodial activity of test compounds was determined using the malaria SYBR Green I-based fluorescence assay described by Smilkstein et al., with minor modifications. Briefly, P. falciparum-infected erythrocytes were incubated in culture medium containing two-fold dilutions of the test compounds in 96-well microtiter plates. Assays were initiated with ring-stage P. falciparum-infected erythrocytes at a hematocrit and parasitemia of 1%. Wells containing infected erythrocytes in the presence of chloroquine (0.25–2 µM) served as zero growth controls and wells containing infected erythrocytes in the absence of chloroquine or test compounds served as 100% parasite growth controls. Plates were incubated at 37°C under an atmosphere of 96% nitrogen, 3% carbon dioxide and 1% oxygen for 96 h, before 100 µL from each well was mixed with 100 µL of SYBR Safe DNA gel stain (0.2 µL/mL) in 20 mM Tris, pH 7.5, 5 mM ethylenediaminetetraacetic acid (EDTA), 0.008% (w/v) saponin, 0.08% (v/v) Triton X-100, in a second 96-well microtitre plate. Fluorescence was measured using a FLUOstar OPTIMA multidetection microplate reader from BMG LABTECH with excitation and emission wavelengths of 490 and 520 nm, respectively. The 50% inhibitory concentration (IC50) of each test compound under each test condition was calculated by fitting the data to a sigmoidal curve (typically y = a/(1+ (x/x0)^b) using nonlinear least squares regression (SigmaPlot, Systat Software) and averaging the IC50 estimates from independent experiments.
The antiplasmodial activity of test compounds was assessed in media that had been subjected to different pre-incubations. “Fresh” medium refers to medium that was stored for a maximum of 48 h at 4°C, and incubated at 37°C for a maximum of 1 h, prior to use. “Aged” medium refers to medium that was stored for a minimum of one week at 4°C and incubated intermittently at 37°C, or medium incubated continuously at 37°C for 40 h soon after preparation. As indicated at the relevant positions within the “Results” section, for some experiments the fresh medium used was, more specifically, medium used immediately following preparation, and the aged medium used was, more specifically, medium that was incubated at 37°C for 40 h immediately prior to use.

P. falciparum PanK = experiment: [14C]pantothenate phosphorylation assay with P. falciparum lysate; format: biochemical, Plasmodium falciparum; conditions: 100 µM pantothenamide, 0.2 µM [14C]pantothenate, 10 min
Procedure: To assess the effect of the pantothenamides on pantothenate phosphorylation by P. falciparum PanK, the phosphorylation of [^14C]pantothenate by P. falciparum lysates was measured in the presence and absence of a single concentration of each pantothenamide. P. falciparum lysate was prepared from trophozoite stage parasites “isolated” from their host erythrocyte by treatment with 0.05% (w/v) saponin (essentially as described by Saliba et al.), and washed (five times) in HEPES-buffered saline (125 mM NaCl, 5 mM KCl, 20 mM D-glucose, 25 mM HEPES, 1 mM MgCl2, pH 7.1). Lysates were prepared as described by van Schalkwyk et al., except that 10 mM potassium phosphate, pH 7.4 (rather than 10 mM Tris, pH 7.4), was used to lyse the cells. Aliquots of lysate were stored at −20°C. The concentration of cell lysates was determined from cell counts made using an improved Neubauer hemocytometer.
[^14C]Pantothenate phosphorylation was assayed using the Somogyi reagent essentially as described by Saliba et al., except that pantothenate phosphorylation was terminated by heat denaturation (rather than acid denaturation) of the protein in reaction aliquots. Briefly, P. falciparum lysate was added to solutions (at 37°C) of 50 mM Tris, 5 mM ATP, 5 mM MgCl2, at pH 7.4, containing [^14C]pantothenate (at a final concentration of 0.01 µCi/mL, or 0.2 µM), and a pantothenamide (at a final concentration of 100 µM) or an equivalent volume of solvent. Typically, lysate prepared from 5.4–6.5×10^7 parasites was present in each mL of reaction solution. Zero phosphorylation control reactions were prepared by adding a corresponding volume of 10 mM potassium phosphate instead of parasite lysate. Following a ten minute incubation at 37°C (a period during which pantothenate phosphorylation increased linearly with time in the absence of inhibitors) 200 µL aliquots of the [^14C]pantothenate phosphorylation reactions were transferred in duplicate to microcentrifuge tubes, and immediately incubated at 95°C for 10 min to terminate phosphorylation. Terminated reaction samples were centrifuged at 15 800×g for 10 min to pellet the denatured protein, before two aliquots of each supernatant (typically 80 µL) were transferred to new microcentrifuge tubes. To one aliquot, 500 µL Somogyi reagent was added, and to the other, 500 µL water was added. The samples were processed for determination of phosphorylated [^14C]pantothenate as described previously.

[2] = Plasmodium falciparum, 3D7, 96 h, fresh Albumax-complete RPMI, read-out: IC50 against P. falciparum, fresh medium, 1 μM pantothenate
[3] = Plasmodium falciparum, 3D7, aged Albumax-complete RPMI (37°C for 40 h), read-out: IC50 against P. falciparum, aged medium, 1 μM pantothenate
[4] = fresh Albumax-complete RPMI, IC50 at 100 µM pantothenate / IC50 at 1 µM pantothenate

Structure (SMILES) | IC50 [1, 2] | IC50 [1, 3] | Inhibition of pantothenate phosphorylation at 100 μM (P. falciparum PanK) | further results
CC(C)(CO)[C@@H](O)C(=O)NCCC(=O)N1CCN(Cc2ccccc2)CC1 [Compound 7] | > 200 µM | > 200 µM | 98 ± 2% | –
CC(C)(CO)[C@@H](O)C(=O)NCCC(=O)NCCO [Compound 16] | > 200 µM | – | 100% | effect on parasite growth in fresh Albumax-complete RPMI [1]: without effect
CC(C)(CO)[C@@H](O)C(=O)NCCC(=O)NCCN1CCOCC1 [Compound 8] | > 200 µM | > 200 µM | 94 ± 5% | –
CC(C)(CO)[C@@H](O)C(=O)NCCCO [pantothenol, reference compound] | – | – | – | inhibition at 2000 µM ([1]; Plasmodium falciparum, 3D7, 2 mM, Albumax-complete RPMI supplemented with 100 µM pantothenate, fresh and aged, read-out: inhibition of growth at highest concentration tested with 100 µM pantothenate): < 50%; effect of additional Albumax II on activity in aged medium ([1]; aged medium + additional Albumax II (0.6%, w/v)): unaffected; activity in aged versus fresh Albumax-complete RPMI ([1]; aged vs fresh medium, P = 0.32): comparable in aged and fresh medium
COCCCNC(=O)CCNC(=O)[C@H](O)C(C)(C)CO [Compound 21] | 166 ± 18 µM | 1.9 ± 0.5 µM | 98 ± 2% | –
CC(C)(CO)[C@@H](O)C(=O)NCCC(=O)NCCc1ccccc1 [Compound 3] | – | – | 100% | IC50 ([1]; Plasmodium falciparum, 3D7, 96 h, aged Albumax-complete RPMI, read-out: IC50 against P. falciparum in aged medium): 0.02 ± 0.002 µM
CC1C(NC(=O)CCNC(=O)C(O)C(C)(C)CO)CC2CC1C2(C)C (centres unmarked) [Compound 10] | > 200 µM | > 200 µM | 100% | –
CCOCCNC(=O)CCNC(=O)[C@H](O)C(C)(C)CO [Compound 22] | 162 ± 20 µM | 1.4 ± 0.1 µM | 100% | –
CCCNC(=O)CCNC(=O)[C@H](O)C(C)(C)CO [Compound 11] | 134 ± 22 µM | 0.34 ± 0.01 µM | 100% | –
COc1ccc(CCNC(=O)CCNC(=O)[C@H](O)C(C)(C)CO)cc1OC [Compound 4] | > 200 µM | > 200 µM | 100% | –
COc1cc(CNC(=O)CCNC(=O)[C@H](O)C(C)(C)CO)cc(OC)c1OC [Compound 6] | > 200 µM | > 200 µM | 96 ± 2% | –
CCCCCCCNC(=O)CCNC(=O)[C@H](O)C(C)(C)CO [Compound 2] | > 200 µM | – | 99 ± 1% | –
CCOCCCNC(=O)CCNC(=O)[C@H](O)C(C)(C)CO [Compound 19] | 49 ± 8 µM | 0.27 ± 0.06 µM | 96 ± 4% | fold-increase in IC50 following supplementation with 100 µM pantothenate, aged medium ([1]; aged Albumax-complete RPMI, IC50 at 100 µM pantothenate / IC50 at 1 µM pantothenate): 24±1 times; fold-increase in IC50 following supplementation with 100 µM pantothenate, fresh medium [1, 4]: 1.7±0.4 times
CCCCCNC(=O)CCNC(=O)[C@H](O)C(C)(C)CO [Compound 1] | 124 ± 15 µM | 2 ± 0.2 µM | 99 ± 1% | –
COc1ccc(CNC(=O)CCNC(=O)[C@H](O)C(C)(C)CO)cc1 [Compound 9] | > 200 µM | – | 99 ± 1% | –
CC(C)(CO)[C@@H](O)C(=O)NCCC(=O)NCCCO [Compound 20] | > 200 µM | – | 94 ± 6% | effect on parasite growth in fresh Albumax-complete RPMI [1]: without effect
CC(C)=CCC/C(C)=C/CNC(=O)CCNC(=O)[C@H](O)C(C)(C)CO [Compound 13] | 66 ± 4 µM | 150 ± 5 µM | 100% | fold-increase in IC50 following supplementation with 100 µM pantothenate, fresh medium [1, 4]: 1±0.1 times
CC(CCc1ccccc1)NC(=O)CCNC(=O)[C@H](O)C(C)(C)CO (some centres unmarked) [Compound 5] | > 200 µM | > 200 µM | 94 ± 3% | –
COCCNC(=O)CCNC(=O)[C@H](O)C(C)(C)CO [Compound 15] | > 200 µM | > 200 µM | 100% | effect on parasite growth in fresh Albumax-complete RPMI [1]: lacked antiplasmodial activity
CSCCNC(=O)CCNC(=O)[C@H](O)C(C)(C)CO [Compound 14] | > 200 µM | > 200 µM | 100% | effect on parasite growth in fresh Albumax-complete RPMI [1]: little effect
CCSCCNC(=O)CCNC(=O)[C@H](O)C(C)(C)CO [Compound 17] | 44 ± 5 µM | 0.067 ± 0.002 µM | 95 ± 5% | –
CSCCCNC(=O)CCNC(=O)[C@H](O)C(C)(C)CO [Compound 18] | 76 ± 12 µM | 0.23 ± 0.06 µM | 98 ± 2% | –
